Source: ChEMBL document CHEMBL3124853, “Synthesis and anti-Candidal activity of N-(4-aryl/cyclohexyl)-2-(pyridine-4-yl carbonyl) hydrazinecarbothioamide” (Bioorg Med Chem Lett, 2014)
In brackets after ≈: the same amount, converted by molar mass.

Key:
[1] = Cytotoxicity against human MCF10A cells after 48 hrs by WST1 assay; format: cell-based; conditions: MCF-10A
Candida [2] = assay: Antifungal activity against Candida sp. clinical isolate 12810 derived from blood by microbroth dilution method; format: functional
Candida parapsilosis = assay: Antifungal activity against Candida parapsilosis ATCC 22019 by microbroth dilution method; format: functional; conditions: Lodderomyces parapsilosis
Candida [3] = assay: Antifungal activity against Candida sp. clinical isolate 178 derived from high vaginal swabs by microbroth dilution method; format: functional
Candida albicans = assay: Antifungal activity against Candida albicans ATCC 66027 by microbroth dilution method; format: functional
Candida [4] = assay: Antifungal activity against Candida sp. clinical isolate 12485 derived from urine by microbroth dilution method; format: functional; conditions: clinical isolate 12485, Urine
Candida tropicalis = assay: Antifungal activity against Candida tropicalis ATCC 66029 by microbroth dilution method; format: functional
Candida [5] = assay: Antifungal activity against Candida sp. clinical isolate 12341 derived from urine by microbroth dilution method; format: functional; conditions: clinical isolate 12341, Urine
Candida [6] = assay: Antifungal activity against Candida sp. clinical isolate 11972 derived from high vaginal swabs by microbroth dilution method; format: functional
Candida [7] = assay: Antifungal activity against Candida sp. clinical isolate 13184 derived from high vaginal swabs by microbroth dilution method; format: functional
Candida [8] = assay: Antifungal activity against Candida sp. clinical isolate 300 derived from urine by microbroth dilution method; format: functional; conditions: clinical isolate 300, Urine
[9] = Cytotoxicity against human HT1080 cells after 48 hrs by MTT assay; format: cell-based; conditions: HT-1080, 48 h
A549 = assay: Cytotoxicity against human A549 cells after 48 hrs by MTT assay; format: cell-based; conditions: A549, 48 h
HepG2 = assay: Cytotoxicity against human HepG2 cells after 48 hrs by MTT assay; format: cell-based; conditions: HepG2, 48 h

SMILES	MIC (Candida [2]) [µg/mL]	MIC (Candida parapsilosis) [µg/mL]	MIC (Candida [3]) [µg/mL]	MIC (Candida albicans) [µg/mL]	MIC (Candida [4]) [µg/mL]	MIC (Candida tropicalis) [µg/mL]	MIC (Candida [5]) [µg/mL]	MIC (Candida [6]) [µg/mL]	MIC (Candida [7]) [µg/mL]	MIC (Candida [8]) [µg/mL]	IC50 [1] [µM]	IC50 [9] [µg/mL]	IC50 (A549) [µg/mL]	IC50 (HepG2) [µg/mL]
Cc1ccccc1N=C(S)NNC(=O)c1ccncc1	> 50	> 50	> 50	> 50	> 50	> 50	> 50	> 50	> 50	> 50	> 300	–	–	–
COc1ccccc1N=C(S)NNC(=O)c1ccncc1	> 50	> 50	> 50	> 50	> 50	> 50	> 50	> 50	> 50	> 50	> 300	–	–	–
Cc1ccc(NC(=S)NNC(=O)c2ccncc2)cc1	> 50	> 50	> 50	> 50	> 50	> 50	> 50	> 50	> 50	> 50	229	–	–	–
Cc1cccc(NC(=S)NNC(=O)c2ccncc2)c1	> 50	> 50	> 50	> 50	> 50	> 50	> 50	> 50	> 50	> 50	> 300	–	–	–
COc1cccc(NC(=S)NNC(=O)c2ccncc2)c1	> 50	> 50	> 50	> 50	> 50	> 50	> 50	> 50	> 50	> 50	> 300	–	–	–
CCOc1ccc(NC(=S)NNC(=O)c2ccncc2)cc1	> 50	> 50	> 50	> 50	> 50	> 50	> 50	> 50	> 50	> 50	> 300	–	–	–
O=C(NNC(=S)NC1CCCCC1)c1ccncc1	> 50	> 50	> 50	> 50	> 50	> 50	> 50	> 50	> 50	> 50	> 300	–	–	–
COc1ccc(NC(=S)NNC(=O)c2ccncc2)cc1	> 50	> 50	> 50	> 50	> 50	> 50	> 50	> 50	> 50	> 50	47.5	–	–	–
Cc1cccc(C)c1NC(=S)NNC(=O)c1ccncc1	1.6 (≈ 5.33 µM)	0.78 (≈ 2.6 µM)	6.25 (≈ 20.8 µM)	0.78 (≈ 2.6 µM)	6.25 (≈ 20.8 µM)	0.78 (≈ 2.6 µM)	6.25 (≈ 20.8 µM)	12.5 (≈ 41.6 µM)	6.25 (≈ 20.8 µM)	0.78 (≈ 2.6 µM)	> 300	–	–	–
CCc1cccc(NC(=S)NNC(=O)c2ccncc2)c1	> 50	> 50	> 50	> 50	> 50	> 50	> 50	> 50	> 50	> 50	> 300	–	–	–
O=C(NNC(=S)Nc1ccc([N+](=O)[O-])cc1)c1ccncc1	> 50	> 50	> 50	> 50	> 50	> 50	> 50	> 50	> 50	> 50	> 300	–	–	–
O=C(NNC(=S)Nc1ccc(S(=O)(=O)Nc2ncccn2)cc1)c1ccncc1	> 50	> 50	> 50	> 50	> 50	> 50	> 50	> 50	> 50	> 50	> 300	–	–	–
O=C(O)c1cn(C2CC2)c2cc(N3CCNCC3)c(F)cc2c1=O [CIPROFLOXACIN]	–	–	–	–	–	–	–	–	–	–	> 300	–	–	–

Continued, in another order:

MIC (Candida [2]) [µg/mL]	MIC (Candida parapsilosis) [µg/mL]	MIC (Candida [3]) [µg/mL]	MIC (Candida albicans) [µg/mL]	MIC (Candida [4]) [µg/mL]	MIC (Candida tropicalis) [µg/mL]	MIC (Candida [5]) [µg/mL]	MIC (Candida [6]) [µg/mL]	MIC (Candida [7]) [µg/mL]	MIC (Candida [8]) [µg/mL]	SMILES	IC50 [1] [µM]	IC50 [9] [µg/mL]	IC50 (A549) [µg/mL]	IC50 (HepG2) [µg/mL]
0.78 (≈ 2.86 µM)	0.39 (≈ 1.43 µM)	6.25 (≈ 22.9 µM)	0.19 (≈ 0.698 µM)	1.6 (≈ 5.88 µM)	1.6 (≈ 5.88 µM)	1.6 (≈ 5.88 µM)	6.25 (≈ 22.9 µM)	12.5 (≈ 45.9 µM)	0.19 (≈ 0.698 µM)	O=C(NNC(=S)Nc1ccccc1)c1ccncc1	> 300	684 (≈ 2510 µM)	2040 (≈ 7500 µM)	716 (≈ 2630 µM)
0.09 (≈ 0.293 µM)	0.78 (≈ 2.54 µM)	6.25 (≈ 20.4 µM)	0.19 (≈ 0.619 µM)	6.25 (≈ 20.4 µM)	1.6 (≈ 5.22 µM)	0.78 (≈ 2.54 µM)	0.39 (≈ 1.27 µM)	6.25 (≈ 20.4 µM)	0.78 (≈ 2.54 µM)	O=C(NNC(=S)Nc1cccc(Cl)c1)c1ccncc1	> 300	–	–	–
1.6 (≈ 4.86 µM)	0.19 (≈ 0.577 µM)	0.19 (≈ 0.577 µM)	0.39 (≈ 1.18 µM)	1.6 (≈ 4.86 µM)	0.19 (≈ 0.577 µM)	1.6 (≈ 4.86 µM)	0.78 (≈ 2.37 µM)	1.6 (≈ 4.86 µM)	1.6 (≈ 4.86 µM)	CC(=O)Nc1ccc(NC(=S)NNC(=O)c2ccncc2)cc1	> 300	–	–	–
0.39 (≈ 0.979 µM)	0.19 (≈ 0.477 µM)	0.09 (≈ 0.226 µM)	0.39 (≈ 0.979 µM)	0.78 (≈ 1.96 µM)	0.19 (≈ 0.477 µM)	0.19 (≈ 0.477 µM)	0.19 (≈ 0.477 µM)	1.6 (≈ 4.02 µM)	1.6 (≈ 4.02 µM)	O=C(NNC(=S)Nc1ccc(I)cc1)c1ccncc1	> 300	–	–	–
0.39 (≈ 1.23 µM)	6.25 (≈ 19.7 µM)	0.39 (≈ 1.23 µM)	1.6 (≈ 5.04 µM)	0.39 (≈ 1.23 µM)	0.19 (≈ 0.599 µM)	6.25 (≈ 19.7 µM)	6.25 (≈ 19.7 µM)	0.78 (≈ 2.46 µM)	1.6 (≈ 5.04 µM)	O=C(NNC(=S)Nc1ccccc1[N+](=O)[O-])c1ccncc1	> 300	833 (≈ 2630 µM)	813 (≈ 2560 µM)	410 (≈ 1290 µM)
0.09 (≈ 0.293 µM)	0.19 (≈ 0.619 µM)	0.19 (≈ 0.619 µM)	0.09 (≈ 0.293 µM)	0.39 (≈ 1.27 µM)	0.19 (≈ 0.619 µM)	0.19 (≈ 0.619 µM)	0.19 (≈ 0.619 µM)	0.78 (≈ 2.54 µM)	0.39 (≈ 1.27 µM)	O=C(NNC(=S)Nc1ccc(Cl)cc1)c1ccncc1	> 300	540 (≈ 1760 µM)	410 (≈ 1340 µM)	1200 (≈ 3910 µM)
0.25 (≈ 0.354 µM)	0.04 (≈ 0.0567 µM)	0.19 (≈ 0.269 µM)	1.56 (≈ 2.21 µM)	0.04 (≈ 0.0567 µM)	0.19 (≈ 0.269 µM)	0.09 (≈ 0.128 µM)	0.02 (≈ 0.0283 µM)	0.39 (≈ 0.553 µM)	0.09 (≈ 0.128 µM)	CCC(C)n1ncn(-c2ccc(N3CCN(c4ccc(OCC5COC(Cn6cncn6)(c6ccc(Cl)cc6Cl)O5)cc4)CC3)cc2)c1=O (configuration not stated) [ITRACONAZOLE]	> 300	202 (≈ 286 µM)	182 (≈ 258 µM)	142 (≈ 201 µM)
